Key:
[1] = system: barnyardgrass; experiment: Test A pre-/postemergence herbicide test; type: in vivo, Echinochloa crus-galli
Summary of the method: (§1)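 Both application timings used compounds in a non-phytotoxic solvent plus surfactant. Pre-emergence: soil sprayed directly after seeding into loam/sand. Post-emergence: foliage of 2–10 cm seedlings (1–2 leaves) sprayed. Injury rated ~10 days later, 0–100.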

[2] = system: pigweed; experiment: Test A pre-/postemergence herbicide test; type: in vivo, Amaranthus retroflexus
Summary of the method: as §1

[3] = system: corn; experiment: Test A pre-/postemergence herbicide test; type: in vivo, Zea mays
Summary of the method: as §1

[4] = system: sedge, umbrella; experiment: Test B flooded paddy test; type: in vivo, Cyperus difformis; details: 250 g ai/ha, Flood; scale of 0 to 100 where 0 is no effect and 100 is complete control
Summary of the method: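 Scored visually 0–100 (0 no effect, 100 complete control) versus controls after 13 to 15 greenhouse days. Treatment: compound added to paddy water kept 3 cm above soil, on 2-leaf-stage plants.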

[5] = system: ryegrass, Italian; experiment: Test C pre-/postemergence herbicide test; type: in vivo, Lolium multiflorum
Summary of the method: (§2)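 Herbicidal effect was judged by eye 13 to 15 days after treatment in the greenhouse, using a 0–100 scale against controls. Chemicals in a non-phytotoxic solvent with surfactant were sprayed onto planted loam/sand soil or onto plants 2 to 18 cm tall in a peat-based growing medium.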

[6] = system: galium; experiment: Test C pre-/postemergence herbicide test; type: in vivo, Galium aparine
Summary of the method: as §2

[7] = system: corn; experiment: Test C pre-/postemergence herbicide test; type: in vivo, Zea mays
Summary of the method: as §2

[8] = system: foxtail, giant; experiment: Test C pre-/postemergence herbicide test; type: in vivo, Setaria faberii
Summary of the method: as §2

[9] = system: ragweed; experiment: Test C pre-/postemergence herbicide test; type: in vivo, Ambrosia elatior
Summary of the method: as §2

[10] = system: soybean; experiment: Test C pre-/postemergence herbicide test; type: in vivo, Glycine max
Summary of the method: as §2

[11] = system: oat, wild; experiment: Test C pre-/postemergence herbicide test; type: in vivo, Avena fatua
Excerpt: Seeds of plant species selected from blackgrass (Alopecurus myosuroides), ryegrass, Italian (Italian ryegrass, Lolium multiflorum), wheat (winter wheat, Triticum aestivum), galium (catchweed bedstraw, Galium aparine), corn (Zea mays), crabgrass, large (large crabgrass, Digitaria sanguinalis), foxtail, giant (giant foxtail, Setaria faberii), johnsongrass (Sorghum halepense), lambsquarters (Chenopodium album), morningglory (Ipomoea coccinea), nutsedge, yellow (yellow nutsedge, Cyperus esculentus), pigweed (Amaranthus retroflexus), ragweed (common ragweed, Ambrosia elatior), soybean (Glycine max), barnyardgrass (Echinochloa crus-galli), oilseed rape (Brassica napus), waterhemp (common waterhemp, Amaranthus rudis), kochia (Kochia scoparia), oat, wild (wild oat, Avena fatua), surinam grass (Brachiaria decumbens), foxtail, green (green foxtail, Setaria viridis), goosegrass (Eleusine indica), bromegrass, downy (downy bromegrass, Bromus tectorum), nightshade (eastern black nightshade, Solanum ptycanthum), cocklebur (common cocklebur, Xanthium strumarium), cupgrass, woolly (woolly cupgrass, Eriochloa villosa), bermudagrass (Cynodon dactylon), sunflower, (common oilseed sunflower, Helianthus annuus), Russian thistle (Salsola kali) and velvetleaf (Abutilon theophrasti) were planted into a blend of loam soil and sand and treated preemergence with test chemicals formulated in a non-phytotoxic solvent mixture which included a surfactant. At the same time, plants selected from these crop and weed species and also barley (winter barley, Hordeum vulgare), […]), chickweed (common chickweed, Stellaria media), deadnettle (henbit deadnettle, Lamium amplexicaule), and canarygrass (littleseed canarygrass, Phalaris minor) were planted in pots containing Redi-Earth® planting medium (Scotts Company, 14111 Scottslawn Road, Marysville, Ohio 43041) comprising spaghnum peat moss, vermiculite, wetting agent and starter nutrients and treated with postemergence applications of test chemicals formulated in the same manner. Plants ranged in height from 2 to 18 cm (1- to 4-leaf stage) for postemergence treatments. Treated plants and controls were maintained in a greenhouse for 13 to 15 days, after which time all species were compared to controls and visually evaluated. Plant response ratings, summarized in Table C, are based on a scale of 0 to 100 where 0 is no effect and 100 is complete control. A dash (-) response means no test result.

[12] = Postemergence, 1000 g ai/ha, 0 to 100 scale (0 no effect, 100 complete control)
[13] = Preemergence, 1000 g ai/ha, visual rating on 0 to 100 scale (0 no effect, 100 complete control), approx. 10 days
[14] = Postemergence, 31 g ai/ha, scale 0 (no effect) to 100 (complete control)
[15] = Postemergence, 62 g ai/ha, scale 0 to 100 (0 no effect, 100 complete control)
[16] = Postemergence, 125 g ai/ha, scale 0 to 100 (0 no effect, 100 complete control)
[17] = Postemergence, 250 g ai/ha, scale 0 to 100 (0 no effect, 100 complete control)
[18] = Preemergence, 62 g ai/ha, scale 0 to 100
[19] = Preemergence, 125 g ai/ha, scale 0 to 100 (0 no effect, 100 complete control)
[20] = Preemergence, 31 g ai/ha, scale 0 to 100 (0 no effect, 100 complete control)
[21] = Preemergence, 250 g ai/ha, scale 0 to 100 (0 no effect, 100 complete control)
[22] = Postemergence, 125 g ai/ha, 0 to 100 scale, 0 is no effect, 100 is complete control
[23] = Postemergence, 500 g ai/ha, 0 to 100 scale (0 no effect, 100 complete control)
[24] = Preemergence, 125 g ai/ha, 0 to 100 scale where 0 is no effect and 100 is complete control
[25] = preemergence, 500 g ai/ha, 0 to 100 scale, 0 is no effect and 100 is complete control
[26] = Postemergence, 8 g ai/ha, scale 0 to 100 (0 no effect, 100 complete control)
[27] = Postemergence, 16 g ai/ha, scale 0 to 100 (0 no effect, 100 complete control)
[28] = Postemergence, 31 g ai/ha, scale 0 to 100 (0 no effect, 100 complete control)
[29] = Postemergence, 62 g ai/ha, scale 0 (no effect) to 100 (complete control)
[30] = Preemergence, 31 g ai/ha, scale 0 to 100, 0 is no effect and 100 is complete control
[31] = Preemergence, 62 g ai/ha, scale 0 to 100 (0 no effect, 100 complete control)
[32] = Preemergence, 8 g ai/ha, scale 0 to 100
[33] = Preemergence, 16 g ai/ha, scale 0 to 100

O=C1NCC(c2cc(F)c(F)c(F)c2)C1C(=O)Nc1ccccc1F (racemic) [Compound 34]
Plant response rating, Barnyardgrass [1, 12]: 90
Plant response rating, Barnyardgrass [1, 13]: 90
Plant response rating, Pigweed [2, 12]: 0
Plant response rating, Pigweed [2, 13]: 0
Plant response rating, Corn [3, 12]: 50
Plant response rating, Corn [3, 13]: 30
Plant response rating, Sedge, Umbrella [4]: 0
Plant response rating, Ryegrass, Italian [5, 14]: 0
Plant response rating, Ryegrass, Italian [5, 15]: 0
Plant response rating, Ryegrass, Italian [5, 16]: 0
Plant response rating, Ryegrass, Italian [5, 17]: 0
Plant response rating, Ryegrass, Italian [5, 18]: 0
Plant response rating, Ryegrass, Italian [5, 19]: 20
Plant response rating, Galium [6, 14]: 0
Plant response rating, Galium [6, 15]: 0
Plant response rating, Galium [6, 16]: 0
Plant response rating, Galium [6, 17]: 10
Galium plant response rating [6, 20]: 0
Plant response rating, Galium [6, 18]: 0
Plant response rating, Galium [6, 19]: 5
Plant response rating, Galium [6, 21]: 60
Plant response rating, Corn [7, 14]: 0
Plant response rating, Corn [7, 15]: 0
Plant response rating, Corn [7, 16]: 0
Plant response rating, Corn [7, 17]: 0
Corn plant response rating [7, 20]: 0
Plant response rating, Corn [7, 18]: 0
Plant response rating, Corn [7, 19]: 0
Plant response rating, Corn [7, 21]: 10
Plant response rating, Foxtail, Giant [8, 14]: 0
Plant response rating, Foxtail, Giant [8, 15]: 5
Plant response rating, Foxtail, Giant [8, 16]: 5
Plant response rating, Foxtail, Giant [8, 17]: 35
Foxtail, Giant plant response rating [8, 20]: 90
Plant response rating, Foxtail, Giant [8, 18]: 95
Plant response rating, Foxtail, Giant [8, 19]: 98
Plant response rating, Foxtail, Giant [8, 21]: 98
Plant response rating, Ragweed [9, 14]: 5
Plant response rating, Ragweed [9, 15]: 5
Plant response rating, Ragweed [9, 16]: 5
Plant response rating, Ragweed [9, 17]: 5
Plant response rating, Ragweed [9, 18]: 0
Plant response rating, Ragweed [9, 19]: 0
Plant response rating, Soybean [10, 14]: 0
Plant response rating, Soybean [10, 15]: 0
Plant response rating, Soybean [10, 16]: 5
Plant response rating, Soybean [10, 17]: 10
Plant response rating, Soybean [10, 18]: 0
Plant response rating, Soybean [10, 19]: 5
Plant response rating, Oat, Wild [11, 14]: 0
Plant response rating, Oat, Wild [11, 15]: 0
Plant response rating, Oat, Wild [11, 16]: 0
Plant response rating, Oat, Wild [11, 17]: 0
Plant response rating, Oat, Wild [11, 18]: 0
Plant response rating, Oat, Wild [11, 19]: 60

CN1CC(c2ccc(F)cc2)C(C(=O)Nc2cccc(F)c2F)C1=O (centres unmarked) [Compound 271]
Plant response rating, Barnyardgrass [1, 22]: 90
Plant response rating, Barnyardgrass [1, 23]: 90
Plant response rating, Barnyardgrass [1, 24]: 90
Plant response rating, Barnyardgrass [1, 25]: 90
Plant response rating, Pigweed ([2]; Postemergence, 125 g ai/ha, visual rating on 0 to 100 scale (0 no effect, 100 complete control), approx. 10 days): 0
Plant response rating, Pigweed [2, 23]: 20
Plant response rating, Pigweed [2, 24]: 40
Plant response rating, Pigweed [2, 25]: 80
Plant response rating, Corn [3, 22]: 20
Plant response rating, Corn [3, 23]: 60
Plant response rating, Ryegrass, Italian [5, 26]: 0
Plant response rating, Ryegrass, Italian [5, 27]: 0
Plant response rating, Ryegrass, Italian [5, 28]: 0
Plant response rating, Ryegrass, Italian [5, 29]: 0
Ryegrass, Italian plant response rating [5, 30]: 0
Ryegrass, Italian plant response rating [5, 31]: 10
Plant response rating, Ryegrass, Italian [5, 32]: 0
Plant response rating, Ryegrass, Italian [5, 33]: 0
Plant response rating, Galium [6, 26]: 0
Plant response rating, Galium [6, 27]: 5
Plant response rating, Galium [6, 28]: 30
Plant response rating, Galium [6, 29]: 30
Plant response rating, Corn [7, 26]: 0
Plant response rating, Corn [7, 27]: 0
Plant response rating, Corn [7, 28]: 0
Plant response rating, Corn [7, 29]: 0
Corn plant response rating [7, 30]: 0
Corn plant response rating [7, 31]: 0
Plant response rating, Corn [7, 32]: 0
Plant response rating, Corn [7, 33]: 0
Plant response rating, Foxtail, Giant [8, 26]: 0
Plant response rating, Foxtail, Giant [8, 27]: 0
Plant response rating, Foxtail, Giant [8, 28]: 0
Plant response rating, Foxtail, Giant [8, 29]: 0
Foxtail, Giant plant response rating [8, 30]: 90
Foxtail, Giant plant response rating [8, 31]: 98
Plant response rating, Foxtail, Giant [8, 32]: 55
Plant response rating, Foxtail, Giant [8, 33]: 75
Plant response rating, Ragweed [9, 26]: 0
Plant response rating, Ragweed [9, 27]: 15
Plant response rating, Ragweed [9, 28]: 25
Plant response rating, Ragweed [9, 29]: 40
Ragweed plant response rating [9, 30]: 0
Ragweed plant response rating [9, 31]: 10
Plant response rating, Ragweed [9, 32]: 0
Plant response rating, Ragweed [9, 33]: 0
Plant response rating, Soybean [10, 26]: 5
Plant response rating, Soybean [10, 27]: 45
Plant response rating, Soybean [10, 28]: 15
Plant response rating, Soybean [10, 29]: 60
Soybean plant response rating [10, 30]: 0
Soybean plant response rating [10, 31]: 0
Plant response rating, Soybean [10, 32]: 0
Plant response rating, Soybean [10, 33]: 0
Plant response rating, Oat, Wild [11, 26]: 0
Plant response rating, Oat, Wild [11, 27]: 0
Plant response rating, Oat, Wild [11, 28]: 0
Plant response rating, Oat, Wild [11, 29]: 0

Source: patent publication US10294202B2, “Pyrrolidinones as herbicides” (FMC Corporation, priority 2013, dated 2019)
